According to patent US11524938B2, “Aromatic sulfonamide derivatives” (Bayer Pharma Aktiengesellschaft, priority 2016, dated 2022):

Key:
mouse P2X4 = molecular target: T1, mouse P2X4 (Mus musculus, UniProt Q9JJX6); test: FLIPR assay, mouse P2X4 1321N1 Astrocytoma cells; format: cell-based; settings: agonist Mg-ATP 0.5 μM (EC80)
T1 sequence (Q9JJX6 1-388): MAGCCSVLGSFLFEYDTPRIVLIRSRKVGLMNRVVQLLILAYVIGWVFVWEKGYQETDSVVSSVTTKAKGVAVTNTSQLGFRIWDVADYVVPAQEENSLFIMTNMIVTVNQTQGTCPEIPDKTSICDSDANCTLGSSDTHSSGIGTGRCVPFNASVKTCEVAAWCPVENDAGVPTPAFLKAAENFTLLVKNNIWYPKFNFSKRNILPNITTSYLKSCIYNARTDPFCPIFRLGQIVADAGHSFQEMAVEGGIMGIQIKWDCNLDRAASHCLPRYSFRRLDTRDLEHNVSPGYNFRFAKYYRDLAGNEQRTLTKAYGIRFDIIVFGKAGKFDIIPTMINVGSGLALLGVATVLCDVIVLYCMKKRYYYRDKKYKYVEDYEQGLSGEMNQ
Experimental: (§1) 1321N1 Astrocytoma cells stably expressing human P2X4 or rat P2X4 or mouse P2X4 were plated in Collagen I TC-treated microplate at a seeding density of 10000 cells/well and incubated overnight. P2X4 function was assessed by measuring intracellular calcium changes using the calcium-chelating dye Fluo8-AM (Molecular Devices) on a fluorescent imaging plate reader (FLEX/FLIPR station; Molecular Devices). On the day of the assay, the medium was removed and the cells were incubated for 30 min at 37 °C and 5% CO2 in 30 μL of dye buffer (Hank's balanced salt solution, 10 mM HEPES, 1.8 mM CaCl2, 1 mM MgCl2, 2 mM probenecid, 5 mM D-glucose monohydrate, 5 μM Fluo8-AM, pH=7.4). Compounds diluted in probenecid buffer (Hank's balanced salt solution, 10 mM HEPES, 1.8 mM CaCl2, 1 mM MgCl2, 2 mM probenecid, 5 mM D-glucose monohydrate, pH=7.4) were added in a volume of 10 μL and allowed to incubate for 30 min at room temperature. The final assay DMSO concentration was 0.25%. The agonist, Mg-ATP (Sigma), was added in a volume of 10 μL at a concentration representing the EC80 value. EC80 was determined to be 0.5 μM for human and mouse P2X4 and 5 μM for rat P2X4. The fluorescence was measured for an interval of 120 sec at 2 sec intervals. The excitation and emission wavelengths used to monitor fluorescence were 470-495 nm and 515-575 nm, respectively. The data was analyzed based on the increase in peak relative fluorescence units (RFU) compared to the basal fluorescence and the data was normalized to the agonist control. The compounds were tested in triplicates per plate and mean values were plotted in Excel XLFit to determine IC50 values, percentage of maximal inhibition and the Hill coefficients.

rat P2X4 = molecular target: T2, rat P2X4 (Rattus norvegicus, UniProt P51577); test: FLIPR assay, rat P2X4 1321N1 Astrocytoma cells; format: cell-based; settings: agonist Mg-ATP 5 μM (EC80)
T2 sequence (P51577 1-388): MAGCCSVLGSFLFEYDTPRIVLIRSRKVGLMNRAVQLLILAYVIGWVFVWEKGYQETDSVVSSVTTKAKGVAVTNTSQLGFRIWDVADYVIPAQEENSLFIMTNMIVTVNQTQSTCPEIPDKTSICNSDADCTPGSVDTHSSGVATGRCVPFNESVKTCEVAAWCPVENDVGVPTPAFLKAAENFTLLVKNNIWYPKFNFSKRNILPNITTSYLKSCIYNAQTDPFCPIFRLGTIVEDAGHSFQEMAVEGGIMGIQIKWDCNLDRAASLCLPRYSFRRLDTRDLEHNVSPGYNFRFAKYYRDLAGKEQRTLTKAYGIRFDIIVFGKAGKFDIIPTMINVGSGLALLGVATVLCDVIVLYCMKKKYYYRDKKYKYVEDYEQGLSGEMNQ
Experimental: as §1

Sprague Dawley rats = test: CFA-Induced Mechanical Hyperalgesia Model in Rat; format: in vivo; settings: 3 oral doses, 26 h after CFA, vs vehicle
Experimental: Male Sprague Dawley rats were used. Mechanical hyperalgesia was induced by injecting […] of Complete Freund's Adjuvant (CFA) into the plantar surface of the left hind paw. Mechanical hyperalgesia was measured using the Pressure Application Measurement apparatus (Ugo Basile, Gemonio, Italy). Briefly, a linearly increasing pressure was applied to an area of approximately 50 mm^2 of the plantar side of the hind paw, until a behavioural response (paw withdrawal) was observed or until the pressure reached 1000 gf. The pressure at which the behavioural response occurred was recorded as the Paw Withdrawal Threshold (PWT). Both CFA-injected and contralateral PWTs were determined for each rat, in each treatment group and at each time point of the studies. Rats received 3 oral doses of test compound at approximately 12 hours interval starting 1 hour prior to CFA injection. Mechanical hyperalgesia testing was performed 2 hours before CFA injection and 2 hours after the last dosing (FIGS. 4a and 4b).
FIGS. 4a and 4b as nonbinding explanatory examples of compounds according to the invention represent Paw Withdrawal Threshold in gramm (y-axis) of the ipsilateral paw of all tested animals before CFA treatment and 26 h after CFA treatment and vehicle or Example 39 (FIG. 4a) or 326 (FIG. 4b) treatment. […]

Mouse P2X4 1321N1 Astrocytoma Cells (FLIPR Assay) avg Efficacy [%] (mouse P2X4) | Rat P2X4 1321N1 Astrocytoma Cells (FLIPR Assay) avg Efficacy [%] (rat P2X4) | SMILES | Paw Withdrawal Threshold (PWT), ipsilateral paw (Sprague Dawley rats)
87% | 87% | N#Cc1cnn(-c2ccc(NC(=O)Cc3ccccc3Cl)cc2S(N)(=O)=O)c1 [Example 39, 2-(2-Chlorophenyl)-N-[4-(4-cyano-1H-pyrazol-1-yl)-3-sulfamoylphenyl]acetamide] | significantly increased PWT
87% | 99% | NS(=O)(=O)c1cc(NC(=O)Cc2ccccc2Cl)ccc1-c1cnn(C(F)F)c1 [Example 326, 2-(2-Chlorophenyl)-N-{4-[1-(difluoromethyl)-1H-pyrazol-4-yl]-3-sulfamoylphenyl}acetamide] | significantly increased PWT
